Drawing on patent US12527808B2, “Compounds useful to treat pain” (Amneal Pharmaceuticals LLC, priority 2019, dated 2026), this text covers inhibition for 1 compound.

For one experiment, the target named is T1, Bradykinin B1 Receptor (Homo sapiens, UniProt P46663).
T1 construct: purchased; host or cells: transiently transfected CHO-K1 cells (membranes)
T1 sequence (P46663 1-353): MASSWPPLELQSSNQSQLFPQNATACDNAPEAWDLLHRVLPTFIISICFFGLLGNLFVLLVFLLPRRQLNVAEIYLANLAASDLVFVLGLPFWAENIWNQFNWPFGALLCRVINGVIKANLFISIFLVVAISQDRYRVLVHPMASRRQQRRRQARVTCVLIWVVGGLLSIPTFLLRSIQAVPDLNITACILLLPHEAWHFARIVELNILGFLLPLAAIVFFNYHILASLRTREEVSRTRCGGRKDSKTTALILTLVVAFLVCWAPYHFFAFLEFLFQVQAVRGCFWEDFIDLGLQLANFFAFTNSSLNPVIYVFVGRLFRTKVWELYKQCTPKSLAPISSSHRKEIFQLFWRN
As to the kind of experiment: Radioligand binding assay for bradykinin B1 receptor. As to the method: (§1) Example 10: Radioligand Binding Assay for Bradykinin B1 and B2 Receptor
(§2) Bradykinin receptor membrane (B1 & B2) was procured from commercial source. Competitive radioligand binding assay was done by filtration-based technique using membranes prepared from transiently transfected Chinese hamster ovary (CHO)—K1 cells. Briefly, different concentrations of Phenazopyridine (compound I-A) was added to 96 wells plate containing bradykinin membrane along with required controls. The assay plate was harvested onto a GF/B Unifier harvester plate and washed with cold wash buffer. Plate was dried in oven for 15 mins at 60° C. The membrane activity was analyzed based on the readout using MicroBeta from Perkin Elmer in Counts Per Minute (CPM). Percent inhibition of Bradykinin receptor activity was calculated at each concentration and summarized in the results.

Another experiment has as its target T2, Bradykinin B2 Receptor (Homo sapiens, UniProt P30411).
T2 construct: purchased; host or cells: transiently transfected CHO-K1 cells (membranes)
T2 sequence (P30411 1-391): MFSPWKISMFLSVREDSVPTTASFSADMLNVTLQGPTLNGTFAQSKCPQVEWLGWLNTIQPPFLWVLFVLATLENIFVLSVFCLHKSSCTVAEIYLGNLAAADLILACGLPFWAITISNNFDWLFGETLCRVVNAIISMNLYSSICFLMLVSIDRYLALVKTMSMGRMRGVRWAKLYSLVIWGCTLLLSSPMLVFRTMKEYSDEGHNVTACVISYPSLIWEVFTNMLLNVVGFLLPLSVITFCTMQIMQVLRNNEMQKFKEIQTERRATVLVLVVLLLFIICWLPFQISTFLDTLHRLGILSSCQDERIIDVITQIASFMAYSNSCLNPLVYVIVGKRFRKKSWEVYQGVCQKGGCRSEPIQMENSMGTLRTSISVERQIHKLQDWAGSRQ
Nature of the experiment: Radioligand binding assay for bradykinin B2 receptor. As to the method: as §1, §2

With `Nc1ccc(/N=N/c2ccccc2)c(N)n1` [Phenazopyridine], the values for the inhibition at 1 µM at Bradykinin B1 Receptor (1.00 μM) and at Bradykinin B2 Receptor (1.00 μM) were 12% and 37%, respectively. Besides, the inhibition at 10.01 µM at Bradykinin B1 Receptor (10.01 μM) was found to be 49%; on Bradykinin B2 Receptor (10.01 μM), 59%. The inhibition at 100 µM on Bradykinin B1 Receptor (100.00 μM) was 81%; on Bradykinin B2 Receptor (100.00 μM) it was 98%. The inhibition at 0.03 µM on Bradykinin B2 Receptor (0.03 μM) worked out at 6%. At Bradykinin B2 Receptor (0.10 μM), this compound displayed an inhibition at 0.1 µM of 13%. This compound also showed an inhibition at 0.32 µM at Bradykinin B2 Receptor (0.32 μM) of 10%. Moreover, 3.17 µM produced 38% inhibition on Bradykinin B2 Receptor (3.17 μM). On Bradykinin B2 Receptor (31.65 μM), this compound had an inhibition at 31.65 µM of 78%.

What is called inhibition is the change of the read-out against control, counted positive when it falls.
